Source: paper PMC11477298, “Small Molecules Inducing Autophagic Degradation of Expanded Polyglutamine Protein through Interaction with Both Mutant ATXN3 and LC3” (International Journal of Molecular Sciences, 2024)

Test system: human ATXN3-Q75-GFP SH-SY5Y cells
Experiment: MTT compound cytotoxicity assay
Assay type: cell-based
Details: 0.1–100 μM compound, viability analyzed the next day, n = 3
Protocol: For the compound cytotoxicity assay, ATXN3-Q75-GFP SY5Y cells (2 × 10^4) were plated into 96-well dishes, grown for 20 h, and treated with 0.1–100 μM test compounds. After 1 day, 3-(4,5-dimethylthiazol-2-yl)-2,5-diphenyltetrazolium bromide (MTT, 5 mg/mL) (Sigma-Aldrich, St. Louis, MO, USA) was added to the cells and incubated for 3 h at 37 °C. Lysis buffer (10% Triton X-100, 0.1 N HCl, 18% isopropanol) was then added to dissolve the insoluble formazan crystals. The absorbance of the purple-colored solution was measured at optical density (OD) 570 nm by using a FLx800 fluorescence microplate spectrophotometer (Bio-Tek, Winooski, VT, USA). The half-maximal inhibitory concentration (IC50) was calculated through the construction of a dose–response curve.

CC(=O)/C(=C\c1ccccc1[N+](=O)[O-])Cc1c[nH]c2ccccc12 [NC009-1]
IC50: > 100 µM

CC(=O)/C(=C\c1ccccc1[N+](=O)[O-])Cc1c(C)[nH]c2ccccc12 [NC009-2]
IC50: > 100 µM
